5 molecules from ChEMBL document CHEMBL5518223, “Structure-Guided Elaboration of a Fragment-Like Hit into an Orally Efficacious Leukotriene A4 Hydrolase Inhibitor” (J Med Chem, 2024) can be followed below.

A short description of one series: in vivo. The following applies: C57/BL6, mouse, blood, po, 10 mg/kg.
The species entered for another series is Mus musculus. The series can be described thus: animal or person. To be noted: C57/BL6, po, 14 h, read-out: INH.
Series [1] is described as follows: physchem. To be noted: buffer, pH 6.8.
Description: Solubility of the compound at pH 6.8 using amorphous form of sample
The nature of series [2]: physchem. The following applies: octanol/water, pH 7.4.
A short description of the next series: in vitro. To be noted: dog, MDCK.
Series [3] concerns the target T1, Leukotriene A-4 hydrolase (Homo sapiens, UniProt P09960).
T1 sequence (P09960 whole entry): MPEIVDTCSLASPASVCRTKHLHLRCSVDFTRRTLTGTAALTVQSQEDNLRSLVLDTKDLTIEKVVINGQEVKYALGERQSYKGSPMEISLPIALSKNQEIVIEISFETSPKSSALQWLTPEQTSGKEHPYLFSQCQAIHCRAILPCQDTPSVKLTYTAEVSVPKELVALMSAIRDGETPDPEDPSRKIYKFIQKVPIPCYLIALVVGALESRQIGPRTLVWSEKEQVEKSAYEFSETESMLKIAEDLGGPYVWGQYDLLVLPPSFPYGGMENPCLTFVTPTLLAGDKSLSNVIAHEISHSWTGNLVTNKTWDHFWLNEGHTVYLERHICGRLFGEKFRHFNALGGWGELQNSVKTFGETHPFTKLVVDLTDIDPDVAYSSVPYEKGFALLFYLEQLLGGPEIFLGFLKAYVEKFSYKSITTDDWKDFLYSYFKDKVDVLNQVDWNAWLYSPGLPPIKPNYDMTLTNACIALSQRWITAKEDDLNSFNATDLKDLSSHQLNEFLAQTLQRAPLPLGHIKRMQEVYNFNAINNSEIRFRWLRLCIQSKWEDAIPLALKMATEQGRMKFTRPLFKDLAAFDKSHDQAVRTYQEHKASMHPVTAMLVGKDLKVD
Description: Inhibition of LTA4H (unknown origin) using Arg-AMC as substrate preincubated with compound for 15 mins followed by substrate addition and measured after every 10 mins for 30 mins by fluorescence based analysis.

The target in series [4] is T2, Voltage-gated inwardly rectifying potassium channel KCNH2 (Homo sapiens, UniProt Q12809). The series can be described thus: Inhibition of hERG by microfluidic patch clamp assay. It counts as toxicity.
T2 sequence (Q12809 whole entry): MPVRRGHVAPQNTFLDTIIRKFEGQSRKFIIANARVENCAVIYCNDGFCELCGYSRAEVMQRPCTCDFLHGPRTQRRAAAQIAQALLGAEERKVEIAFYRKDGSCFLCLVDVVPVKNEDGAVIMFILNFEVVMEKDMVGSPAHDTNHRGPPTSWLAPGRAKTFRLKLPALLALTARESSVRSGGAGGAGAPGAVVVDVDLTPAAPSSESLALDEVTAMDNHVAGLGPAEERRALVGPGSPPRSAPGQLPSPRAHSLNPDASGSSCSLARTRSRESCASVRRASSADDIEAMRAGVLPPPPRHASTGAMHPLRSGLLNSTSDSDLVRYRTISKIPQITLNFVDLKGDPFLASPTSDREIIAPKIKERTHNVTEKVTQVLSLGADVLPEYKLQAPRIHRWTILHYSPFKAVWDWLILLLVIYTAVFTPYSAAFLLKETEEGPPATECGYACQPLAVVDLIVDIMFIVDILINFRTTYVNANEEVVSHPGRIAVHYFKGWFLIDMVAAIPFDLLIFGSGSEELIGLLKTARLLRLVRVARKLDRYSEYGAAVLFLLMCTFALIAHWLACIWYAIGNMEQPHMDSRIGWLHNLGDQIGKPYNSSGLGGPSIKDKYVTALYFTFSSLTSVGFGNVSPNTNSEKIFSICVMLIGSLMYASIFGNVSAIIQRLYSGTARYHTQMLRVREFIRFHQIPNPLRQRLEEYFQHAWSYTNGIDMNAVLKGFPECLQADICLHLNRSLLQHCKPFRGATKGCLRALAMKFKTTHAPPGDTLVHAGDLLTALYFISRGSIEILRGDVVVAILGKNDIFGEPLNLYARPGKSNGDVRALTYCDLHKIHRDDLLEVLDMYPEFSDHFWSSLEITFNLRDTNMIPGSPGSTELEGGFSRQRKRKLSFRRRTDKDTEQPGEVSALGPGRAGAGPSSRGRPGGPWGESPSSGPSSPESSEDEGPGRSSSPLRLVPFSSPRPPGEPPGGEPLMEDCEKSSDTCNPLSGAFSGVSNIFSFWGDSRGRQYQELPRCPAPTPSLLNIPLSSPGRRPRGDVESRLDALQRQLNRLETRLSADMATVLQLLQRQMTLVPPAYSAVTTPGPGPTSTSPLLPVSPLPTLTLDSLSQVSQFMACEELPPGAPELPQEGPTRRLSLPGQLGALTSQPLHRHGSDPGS
For series [5], the target named is T2, Voltage-gated inwardly rectifying potassium channel KCNH2. The series can be described thus: Inhibition of hERG by manual patch clamp assay. It counts as toxicity. Background: The hERG channel carries a current that helps repolarise heart muscle cells.

≈ marks a conversion by molar mass, not a printed value.

Description for Mus musculus: Inhibition of calcium ionophore A23187-stimulated LTB4 release in C57/BL6 mouse model at 10 mg/kg, po bid measured after 14 hrs
Description for in vitro: Apparent permeability coefficient of the compound across apical to basolateral side in dog MDCKII-LE cells
Description for in vivo: Drug concentration in C57/BL6 mouse blood at 10 mg/kg, po bid measured after 14 hrs

In “in vivo”, `N[C@@H](CC(=O)O)Cn1nnc(-c2ccc(Oc3ncc(Cl)cc3F)cc2)n1` yielded a concentration at 14 h of 184 nM.
In the case of `c1ccc(Oc2ccc(-c3c[nH]cn3)cc2)cc1`, the inhibition in vivo at 10 mg/kg in the series listed under Mus musculus came to 93%. Besides, the solubility in the series “physchem [1]” amounted to 121 µM (≈ 28.6 µg/mL). In addition, the log distribution coefficient (logD) in the series “physchem [2]” worked out at 3.7. For the same molecule, in the series “in vitro”, the apparent permeability from apical to basolateral (Papp A→B) came to 56 ×10⁻⁶ cm/s. The IC50 in series [3] was determined as 0.088 µM. The same molecule registered a concentration at 14 h in “in vivo” of 218 nM.
Turning to `c1cc(-c2ccc(Oc3ccc(CN4CCCC4)nc3)nc2)[nH]n1`, the IC50 was more than 30 µM in series [4] and 19 µM in series [5].
For `c1cc(-c2ccc(Oc3ccc(CN4CCCCC4)nc3)nc2)[nH]n1`, in that order: more than 30 µM and 27 µM.
In turn, `CN(C)Cc1ccc(Oc2ccc(-c3ccn[nH]3)cn2)cn1` showed a half-inhibitory concentration (IC50) in series [4] of more than 30 µM.

Broadly, the solubility is how much of the substance goes into solution per volume. Low readings indicate a poorly soluble substance, high ones a readily soluble substance. As a reminder, the logD is the decadic logarithm of the distribution of all forms, ionised or not, between an organic phase and buffer at a given pH. For orientation: Papp A→B means the apparent permeability from the apical to the basolateral side of a cell layer. High values mean fast passage, low ones slow passage. The term IC50 denotes the concentration that gives 50% inhibition.
